Assay results published in the NIST ThermoML archive (doi:10.1016/j.jct.2012.11.004).

Test: mn = molality of the nth substance listed, in mol/kg
Conditions: 101 kPa, Liquid; for mass density: Vibrating tube method; for speed of sound: Pulse-echo method

O=S(=O)([O-])C(F)(F)F.O=S(=O)([O-])C(F)(F)F.O=S(=O)([O-])C(F)(F)F.[Gd+3] [gadolinium (III) trifluoromethanesulfonate] + CC(=O)N(C)C
Conditions	mass density, 283.15 K [kg/m3]	mass density, 293.15 K [kg/m3]	mass density, 298.15 K [kg/m3]	mass density, 303.15 K [kg/m3]	mass density, 313.15 K [kg/m3]	mass density, 323.15 K [kg/m3]	mass density, 333.15 K [kg/m3]	speed of sound, 298.15 K [m/s]
m1 = 0.02128	959.25	950.04	945.43	940.82	931.58	922.32	913.01	1456.1
m1 = 0.02915	962.65	953.45	948.84	944.24	935	925.73	916.44	1455.9
m1 = 0.03784	966.42	957.21	952.61	948.01	938.78	929.52	920.23	1455.7
m1 = 0.04864	971.16	961.95	957.35	952.76	943.52	934.27	924.97	1455.4
m1 = 0.05951	975.96	966.76	962.16	957.57	948.33	939.08	929.78	1455
m1 = 0.07557	983.07	973.86	969.27	964.67	955.44	946.19	936.89	1454.7
m1 = 0.0965	992.52	983.33	978.73	974.12	964.89	955.64	946.35	1454
m1 = 0.1165	1001.67	992.48	987.87	983.27	974.05	964.79	955.49	1453.6
m1 = 0.1341	1009.86	1000.66	996.06	991.46	982.24	972.98	963.68	1452.9
m1 = 0.1567	1020.47	1011.27	1006.67	1002.09	992.85	983.6	974.31	1452.5
m1 = 0.1757	1029.6	1020.41	1015.81	1011.21	1001.99	992.73	983.44	1451.8

O=S(=O)([O-])C(F)(F)F.O=S(=O)([O-])C(F)(F)F.O=S(=O)([O-])C(F)(F)F.[La+3] [lanthanum(III) trifluoromethanesulfonate] + CN(C)C=O
Conditions	mass density, 283.15 K [kg/m3]	mass density, 293.15 K [kg/m3]	mass density, 298.15 K [kg/m3]	mass density, 303.15 K [kg/m3]	mass density, 313.15 K [kg/m3]	mass density, 323.15 K [kg/m3]	mass density, 333.15 K [kg/m3]	speed of sound, 298.15 K [m/s]
m1 = 0.02162	966.85	957.33	952.56	947.79	938.21	928.58	918.9	1456
m1 = 0.02944	970.04	960.51	955.75	950.97	941.39	931.77	922.1	1455.5
m1 = 0.03946	974.16	964.64	959.87	955.09	945.5	935.87	926.19	1455
m1 = 0.04997	978.49	968.96	964.2	959.42	949.83	940.2	930.52	1454.3
m1 = 0.06066	–	–	–	–	–	–	–	1453.6
m1 = 0.0607	982.91	973.38	968.61	963.83	954.24	944.62	934.95	–
m1 = 0.07649	989.57	980.03	975.24	970.46	960.87	951.24	941.56	1452.5
m1 = 0.09777	998.57	989.02	984.24	979.46	969.86	960.23	950.54	1450.8
m1 = 0.1172	1006.98	997.41	992.63	987.84	978.22	968.57	958.88	1449.4
m1 = 0.136	1015.16	1005.59	1000.8	996	986.37	976.72	967.03	1448
m1 = 0.1591	1025.46	1015.87	1011.07	1006.26	996.63	986.96	977.26	1446.3
m1 = 0.1792	1034.5	1024.89	1020.09	1015.28	1005.64	995.97	986.26	1444.9

O=S(=O)([O-])C(F)(F)F.O=S(=O)([O-])C(F)(F)F.O=S(=O)([O-])C(F)(F)F.[La+3] [lanthanum(III) trifluoromethanesulfonate] + CC(=O)N(C)C
Conditions	mass density, 283.15 K [kg/m3]	mass density, 293.15 K [kg/m3]	mass density, 298.15 K [kg/m3]	mass density, 303.15 K [kg/m3]	mass density, 313.15 K [kg/m3]	mass density, 323.15 K [kg/m3]	mass density, 333.15 K [kg/m3]	speed of sound, 298.15 K [m/s]
m1 = 0.02085	958.67	949.47	944.86	940.26	931.01	921.74	912.42	–
m1 = 0.02801	961.64	952.45	947.84	943.23	933.99	924.71	915.39	–
m1 = 0.03761	965.63	956.43	951.81	947.21	937.97	928.7	919.38	–
m1 = 0.04797	969.94	960.74	956.14	951.53	942.29	933.02	923.71	–
m1 = 0.05797	974.13	964.94	960.34	955.73	946.49	937.22	927.91	–
m1 = 0.07244	980.27	971.08	966.48	961.88	952.67	943.36	934	1455.9
m1 = 0.09378	989.43	980.24	975.64	971.03	961.79	952.5	943.16	–
m1 = 0.1127	997.64	988.45	983.85	979.24	969.99	960.7	951.36	–
m1 = 0.1302	1005.34	996.15	991.55	986.95	977.69	968.39	959.05	–
m1 = 0.1523	1015.25	1006.06	1001.46	996.85	987.59	978.29	968.93	–
m1 = 0.1712	1023.81	1014.62	1010.03	1005.42	996.16	986.84	977.5	–
